Measurements: ChEMBL document CHEMBL5465560, “Selectivity Literature for EUbOPEN Chemogenomic Library” (2024)

Assays:
[1] = molecular target: T1, Serine/threonine-protein kinase Nek9 (Homo sapiens) (UniProt Q8TD19); conditions: at 10 µM
T1 sequence (whole entry): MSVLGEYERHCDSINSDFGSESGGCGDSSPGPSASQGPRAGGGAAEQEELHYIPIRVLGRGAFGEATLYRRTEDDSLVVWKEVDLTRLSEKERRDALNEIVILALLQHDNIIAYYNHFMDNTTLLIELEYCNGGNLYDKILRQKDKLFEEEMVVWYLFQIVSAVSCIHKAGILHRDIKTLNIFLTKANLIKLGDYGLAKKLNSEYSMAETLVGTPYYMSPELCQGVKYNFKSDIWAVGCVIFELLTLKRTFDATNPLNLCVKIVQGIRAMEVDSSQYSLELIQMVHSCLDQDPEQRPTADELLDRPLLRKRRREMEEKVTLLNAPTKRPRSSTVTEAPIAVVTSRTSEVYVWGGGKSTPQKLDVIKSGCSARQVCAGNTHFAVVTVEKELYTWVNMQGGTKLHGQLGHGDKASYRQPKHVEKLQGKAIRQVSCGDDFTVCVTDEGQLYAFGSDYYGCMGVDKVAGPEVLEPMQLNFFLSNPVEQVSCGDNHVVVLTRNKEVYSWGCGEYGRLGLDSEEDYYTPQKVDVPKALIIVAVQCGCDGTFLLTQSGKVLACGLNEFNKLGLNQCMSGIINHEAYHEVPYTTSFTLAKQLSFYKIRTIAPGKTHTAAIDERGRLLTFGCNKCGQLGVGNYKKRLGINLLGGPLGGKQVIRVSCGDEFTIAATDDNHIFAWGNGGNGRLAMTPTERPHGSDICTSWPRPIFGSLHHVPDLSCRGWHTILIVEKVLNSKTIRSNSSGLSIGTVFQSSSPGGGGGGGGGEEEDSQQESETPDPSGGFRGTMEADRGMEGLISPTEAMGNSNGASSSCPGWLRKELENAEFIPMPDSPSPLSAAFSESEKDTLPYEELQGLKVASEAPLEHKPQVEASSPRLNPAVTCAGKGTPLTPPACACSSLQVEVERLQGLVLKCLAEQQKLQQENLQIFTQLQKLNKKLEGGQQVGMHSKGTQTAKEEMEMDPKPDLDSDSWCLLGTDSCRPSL

[2] = molecular target: Serine/threonine-protein kinase SIK1 (Homo sapiens) (UniProt P57059); conditions: at 10 µM
[3] = molecular target: Serine/threonine-protein kinase MRCK beta (Homo sapiens) (UniProt Q9Y5S2); experiment: Selectivity interaction (KinomeScan (DiscoverX)) EUB0000229b CDC42BPB; conditions: at 10 µM
[4] = molecular target: Calcium/calmodulin-dependent protein kinase type 1B (Homo sapiens) (UniProt Q6P2M8); experiment: Selectivity interaction (KinomeScan (DiscoverX)) EUB0001079a PNCK; conditions: at 1 µM
[5] = molecular target: T2, Peripheral plasma membrane protein CASK (Homo sapiens) (UniProt O14936); conditions: at 10 µM
T2 sequence (whole entry): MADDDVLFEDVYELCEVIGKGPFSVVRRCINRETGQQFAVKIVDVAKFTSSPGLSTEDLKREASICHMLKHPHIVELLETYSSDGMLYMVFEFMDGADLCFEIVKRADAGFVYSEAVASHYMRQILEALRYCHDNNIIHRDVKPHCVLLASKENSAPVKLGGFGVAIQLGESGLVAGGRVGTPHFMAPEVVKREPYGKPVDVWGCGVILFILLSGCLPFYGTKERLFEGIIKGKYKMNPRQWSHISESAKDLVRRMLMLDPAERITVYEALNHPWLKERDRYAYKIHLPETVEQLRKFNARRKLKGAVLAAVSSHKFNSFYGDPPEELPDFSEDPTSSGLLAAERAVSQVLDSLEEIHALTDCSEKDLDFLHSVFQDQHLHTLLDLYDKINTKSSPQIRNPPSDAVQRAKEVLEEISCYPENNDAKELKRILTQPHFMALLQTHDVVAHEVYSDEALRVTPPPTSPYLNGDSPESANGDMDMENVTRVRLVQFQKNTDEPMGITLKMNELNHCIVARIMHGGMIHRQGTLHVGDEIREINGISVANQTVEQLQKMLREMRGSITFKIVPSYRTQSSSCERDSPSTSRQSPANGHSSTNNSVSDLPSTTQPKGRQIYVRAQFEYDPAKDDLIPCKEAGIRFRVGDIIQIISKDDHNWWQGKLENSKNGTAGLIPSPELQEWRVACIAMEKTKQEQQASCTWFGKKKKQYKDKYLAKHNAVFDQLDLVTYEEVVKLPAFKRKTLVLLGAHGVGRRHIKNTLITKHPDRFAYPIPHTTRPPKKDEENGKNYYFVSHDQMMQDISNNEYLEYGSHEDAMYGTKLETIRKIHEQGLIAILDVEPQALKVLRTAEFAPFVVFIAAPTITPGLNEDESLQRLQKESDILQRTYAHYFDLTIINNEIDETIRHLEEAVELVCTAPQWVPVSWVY

[6] = molecular target: Receptor-interacting serine/threonine-protein kinase 3 (Homo sapiens) (UniProt Q9Y572); experiment: Selectivity interaction (LanthaScreen Eu Kinase Binding Assay) EUB0001632a RIPK3; conditions: at 10 µM
[7] = molecular target: T3, cGMP-dependent protein kinase 1 (Homo sapiens) (UniProt Q13976); experiment: Selectivity interaction (KinomeScan (DiscoverX)) EUB0000695a PRKG1; conditions: at 100 nM
T3 sequence (whole entry): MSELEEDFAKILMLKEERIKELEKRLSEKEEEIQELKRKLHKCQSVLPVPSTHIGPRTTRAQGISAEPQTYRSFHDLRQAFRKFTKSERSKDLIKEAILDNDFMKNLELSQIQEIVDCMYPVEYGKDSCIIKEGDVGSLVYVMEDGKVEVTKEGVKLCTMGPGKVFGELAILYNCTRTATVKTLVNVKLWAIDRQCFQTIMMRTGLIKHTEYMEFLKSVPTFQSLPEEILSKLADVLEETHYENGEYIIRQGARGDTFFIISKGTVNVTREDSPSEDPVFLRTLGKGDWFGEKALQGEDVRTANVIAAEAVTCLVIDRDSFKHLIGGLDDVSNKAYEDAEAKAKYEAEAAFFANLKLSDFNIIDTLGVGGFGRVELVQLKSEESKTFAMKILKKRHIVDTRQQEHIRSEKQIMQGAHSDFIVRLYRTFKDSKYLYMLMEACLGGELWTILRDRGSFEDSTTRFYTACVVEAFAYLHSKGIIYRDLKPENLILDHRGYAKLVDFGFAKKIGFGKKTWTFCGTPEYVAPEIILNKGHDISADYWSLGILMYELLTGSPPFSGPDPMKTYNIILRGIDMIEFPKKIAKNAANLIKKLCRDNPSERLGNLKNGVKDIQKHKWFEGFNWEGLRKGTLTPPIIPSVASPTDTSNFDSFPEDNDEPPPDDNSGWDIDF

[8] = molecular target: Serine/threonine-protein kinase MRCK alpha (Homo sapiens) (UniProt Q5VT25); experiment: Selectivity interaction (Ambit KINOMEscan and KiNATiv profiling in Jurkat cells) EUB0000090b CDC42BPA; format: cell-based; conditions: at 1 µM
Chain of Serine/threonine-protein kinase MRCK alpha (Homo sapiens) (Q5VT25 whole entry): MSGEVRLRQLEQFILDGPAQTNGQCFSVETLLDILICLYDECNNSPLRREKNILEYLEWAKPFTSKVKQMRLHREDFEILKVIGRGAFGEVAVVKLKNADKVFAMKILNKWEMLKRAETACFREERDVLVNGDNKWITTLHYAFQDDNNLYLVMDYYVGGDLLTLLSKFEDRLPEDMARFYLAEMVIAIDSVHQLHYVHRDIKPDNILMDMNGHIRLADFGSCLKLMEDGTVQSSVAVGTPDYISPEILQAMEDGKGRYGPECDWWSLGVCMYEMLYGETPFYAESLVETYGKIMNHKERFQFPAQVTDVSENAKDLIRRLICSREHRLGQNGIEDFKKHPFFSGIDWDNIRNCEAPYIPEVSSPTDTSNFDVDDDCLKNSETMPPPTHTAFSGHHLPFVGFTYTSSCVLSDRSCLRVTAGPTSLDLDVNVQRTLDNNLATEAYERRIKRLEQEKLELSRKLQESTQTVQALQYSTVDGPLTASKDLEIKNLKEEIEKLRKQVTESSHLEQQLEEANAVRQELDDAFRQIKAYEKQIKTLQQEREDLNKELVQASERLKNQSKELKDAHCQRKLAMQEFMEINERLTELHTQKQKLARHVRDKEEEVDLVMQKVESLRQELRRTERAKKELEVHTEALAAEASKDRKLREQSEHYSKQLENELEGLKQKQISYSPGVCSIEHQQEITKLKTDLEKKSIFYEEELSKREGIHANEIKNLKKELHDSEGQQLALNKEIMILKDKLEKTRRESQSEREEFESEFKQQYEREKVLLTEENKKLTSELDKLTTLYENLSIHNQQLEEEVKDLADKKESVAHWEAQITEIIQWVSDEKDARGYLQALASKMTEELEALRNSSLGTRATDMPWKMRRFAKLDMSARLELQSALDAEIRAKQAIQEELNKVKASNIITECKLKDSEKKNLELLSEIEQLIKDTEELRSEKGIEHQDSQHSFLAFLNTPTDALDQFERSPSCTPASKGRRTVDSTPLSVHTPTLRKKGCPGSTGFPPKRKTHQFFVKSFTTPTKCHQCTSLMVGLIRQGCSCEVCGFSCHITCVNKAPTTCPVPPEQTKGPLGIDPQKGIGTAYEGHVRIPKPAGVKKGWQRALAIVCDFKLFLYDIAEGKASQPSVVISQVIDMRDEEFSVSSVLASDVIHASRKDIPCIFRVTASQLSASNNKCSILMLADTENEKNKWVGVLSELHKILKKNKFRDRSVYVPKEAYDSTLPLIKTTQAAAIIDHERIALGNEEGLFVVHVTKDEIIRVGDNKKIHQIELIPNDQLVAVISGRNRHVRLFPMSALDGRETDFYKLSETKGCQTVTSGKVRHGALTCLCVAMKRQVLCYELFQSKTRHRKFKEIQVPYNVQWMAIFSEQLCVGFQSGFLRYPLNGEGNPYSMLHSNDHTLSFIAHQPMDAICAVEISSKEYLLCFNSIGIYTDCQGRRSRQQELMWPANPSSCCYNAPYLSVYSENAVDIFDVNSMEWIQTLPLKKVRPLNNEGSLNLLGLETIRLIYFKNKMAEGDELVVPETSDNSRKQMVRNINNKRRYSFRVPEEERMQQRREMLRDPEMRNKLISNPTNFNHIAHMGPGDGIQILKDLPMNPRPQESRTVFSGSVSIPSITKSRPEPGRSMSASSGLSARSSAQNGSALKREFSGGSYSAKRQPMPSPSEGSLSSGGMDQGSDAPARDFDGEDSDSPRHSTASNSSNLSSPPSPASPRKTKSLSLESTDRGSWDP

Chain of Serine/threonine-protein kinase MRCK beta (Homo sapiens) (Q9Y5S2 whole entry): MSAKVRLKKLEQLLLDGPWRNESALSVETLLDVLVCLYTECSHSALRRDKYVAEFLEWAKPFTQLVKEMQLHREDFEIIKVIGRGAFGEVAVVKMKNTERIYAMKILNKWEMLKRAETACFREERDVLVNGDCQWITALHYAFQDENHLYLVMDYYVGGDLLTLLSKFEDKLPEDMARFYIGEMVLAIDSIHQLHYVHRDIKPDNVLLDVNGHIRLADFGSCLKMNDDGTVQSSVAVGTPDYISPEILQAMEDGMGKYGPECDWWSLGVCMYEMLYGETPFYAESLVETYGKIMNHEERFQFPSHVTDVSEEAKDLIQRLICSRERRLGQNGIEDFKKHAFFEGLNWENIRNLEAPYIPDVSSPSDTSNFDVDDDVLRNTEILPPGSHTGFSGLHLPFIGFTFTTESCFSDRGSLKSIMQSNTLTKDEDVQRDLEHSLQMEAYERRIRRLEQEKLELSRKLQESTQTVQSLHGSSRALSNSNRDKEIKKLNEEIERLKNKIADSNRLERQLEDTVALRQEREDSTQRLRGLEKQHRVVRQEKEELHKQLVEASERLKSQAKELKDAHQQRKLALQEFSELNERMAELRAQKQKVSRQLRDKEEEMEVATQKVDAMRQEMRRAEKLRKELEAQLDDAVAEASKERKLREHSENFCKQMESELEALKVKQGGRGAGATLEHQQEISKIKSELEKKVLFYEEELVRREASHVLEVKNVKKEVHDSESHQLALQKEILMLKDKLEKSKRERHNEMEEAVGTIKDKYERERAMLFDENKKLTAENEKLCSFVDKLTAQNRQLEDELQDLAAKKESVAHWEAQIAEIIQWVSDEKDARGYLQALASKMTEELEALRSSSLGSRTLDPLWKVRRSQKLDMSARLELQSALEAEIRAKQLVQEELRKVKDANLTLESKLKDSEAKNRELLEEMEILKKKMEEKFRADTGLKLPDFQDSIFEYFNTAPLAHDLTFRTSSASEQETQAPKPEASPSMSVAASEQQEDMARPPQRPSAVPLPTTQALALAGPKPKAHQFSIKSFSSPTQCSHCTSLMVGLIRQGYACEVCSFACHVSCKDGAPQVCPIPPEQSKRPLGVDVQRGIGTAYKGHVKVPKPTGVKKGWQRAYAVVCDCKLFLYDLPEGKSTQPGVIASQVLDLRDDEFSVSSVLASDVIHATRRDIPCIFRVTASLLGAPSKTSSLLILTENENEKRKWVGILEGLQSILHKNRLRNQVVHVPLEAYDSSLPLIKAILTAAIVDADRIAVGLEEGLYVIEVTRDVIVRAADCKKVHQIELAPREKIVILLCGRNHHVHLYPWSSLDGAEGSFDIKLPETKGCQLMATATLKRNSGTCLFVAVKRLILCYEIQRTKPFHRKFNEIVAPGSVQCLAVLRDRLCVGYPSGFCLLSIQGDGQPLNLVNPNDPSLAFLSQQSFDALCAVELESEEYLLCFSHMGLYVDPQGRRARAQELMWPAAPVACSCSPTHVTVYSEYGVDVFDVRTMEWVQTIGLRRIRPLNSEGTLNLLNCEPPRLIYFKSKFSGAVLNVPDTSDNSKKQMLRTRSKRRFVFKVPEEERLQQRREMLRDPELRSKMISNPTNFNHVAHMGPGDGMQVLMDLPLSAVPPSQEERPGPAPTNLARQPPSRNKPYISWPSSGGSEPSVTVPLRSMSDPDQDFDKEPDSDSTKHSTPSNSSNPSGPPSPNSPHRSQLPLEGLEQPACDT
Chain of Calcium/calmodulin-dependent protein kinase type 1B (Homo sapiens) (Q6P2M8 whole entry): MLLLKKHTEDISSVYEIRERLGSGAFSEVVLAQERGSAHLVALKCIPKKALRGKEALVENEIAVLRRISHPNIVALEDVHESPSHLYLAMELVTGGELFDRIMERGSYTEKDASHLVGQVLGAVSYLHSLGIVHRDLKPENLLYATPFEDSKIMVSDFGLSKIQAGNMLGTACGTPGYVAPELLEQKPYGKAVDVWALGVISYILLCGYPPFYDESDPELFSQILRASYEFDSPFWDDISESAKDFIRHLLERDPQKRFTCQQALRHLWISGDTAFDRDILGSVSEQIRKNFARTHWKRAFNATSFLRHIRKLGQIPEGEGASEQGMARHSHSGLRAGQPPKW
Chain of Serine/threonine-protein kinase SIK1 (Homo sapiens) (P57059 whole entry): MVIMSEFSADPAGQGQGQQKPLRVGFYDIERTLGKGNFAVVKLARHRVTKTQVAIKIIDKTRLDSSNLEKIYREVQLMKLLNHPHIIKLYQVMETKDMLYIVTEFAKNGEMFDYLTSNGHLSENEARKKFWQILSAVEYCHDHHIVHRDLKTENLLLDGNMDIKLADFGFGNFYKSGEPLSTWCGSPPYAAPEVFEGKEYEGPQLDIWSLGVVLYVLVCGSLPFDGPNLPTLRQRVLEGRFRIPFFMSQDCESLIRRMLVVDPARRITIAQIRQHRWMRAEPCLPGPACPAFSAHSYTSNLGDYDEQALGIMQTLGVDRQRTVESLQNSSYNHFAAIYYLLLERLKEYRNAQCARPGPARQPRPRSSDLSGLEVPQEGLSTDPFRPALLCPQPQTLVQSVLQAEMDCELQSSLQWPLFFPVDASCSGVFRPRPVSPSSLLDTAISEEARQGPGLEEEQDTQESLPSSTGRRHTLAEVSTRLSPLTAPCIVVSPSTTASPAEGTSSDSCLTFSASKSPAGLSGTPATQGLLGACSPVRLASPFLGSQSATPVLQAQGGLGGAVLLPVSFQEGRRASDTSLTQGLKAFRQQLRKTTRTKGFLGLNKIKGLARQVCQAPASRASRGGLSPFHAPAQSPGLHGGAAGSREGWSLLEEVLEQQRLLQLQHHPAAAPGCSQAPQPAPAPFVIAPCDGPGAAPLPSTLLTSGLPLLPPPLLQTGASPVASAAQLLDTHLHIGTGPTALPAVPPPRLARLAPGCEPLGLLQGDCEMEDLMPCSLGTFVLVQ
Chain of Receptor-interacting serine/threonine-protein kinase 3 (Homo sapiens) (Q9Y572 whole entry, looked up): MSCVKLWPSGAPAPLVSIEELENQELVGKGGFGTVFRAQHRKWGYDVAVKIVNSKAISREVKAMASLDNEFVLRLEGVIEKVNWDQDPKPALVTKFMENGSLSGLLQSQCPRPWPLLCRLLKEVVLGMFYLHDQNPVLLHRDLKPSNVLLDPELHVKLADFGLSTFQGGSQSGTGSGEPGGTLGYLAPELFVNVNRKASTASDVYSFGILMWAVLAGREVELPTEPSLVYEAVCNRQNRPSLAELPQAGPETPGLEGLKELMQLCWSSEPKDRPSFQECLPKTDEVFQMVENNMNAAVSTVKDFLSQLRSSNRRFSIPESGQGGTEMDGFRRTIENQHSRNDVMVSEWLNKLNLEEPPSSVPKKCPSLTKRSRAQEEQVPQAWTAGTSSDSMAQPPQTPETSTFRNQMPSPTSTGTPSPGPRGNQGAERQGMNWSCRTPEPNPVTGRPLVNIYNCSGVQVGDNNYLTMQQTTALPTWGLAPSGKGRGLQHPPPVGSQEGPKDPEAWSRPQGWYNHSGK

In the case of `CCN(CC)CCCCNc1ncc2cc(-c3cc(OC)cc(OC)c3)c(NC(=O)NC(C)(C)C)nc2n1`, the % of control [1] is reported as 100% and the % of control [2] is reported as 100%.
With `COc1cc(N(C)c2ccnc3ccc(C(F)(F)F)cc23)cc(OC)c1OC` the % binding [3] was 100%.
Compound `Nc1cnc(N2CCc3cc(S(=O)(=O)Nc4c(F)cc(Cl)cc4F)cc(N4CCCC4=O)c32)nc1` [TP-020n] has a % of control [4] of 67%.
Work on `Cc1cc([C@@H](C)Nc2ccccc2C(=O)O)c2nc(N3CCOCC3)cc(=O)n2c1` [AZD-6482] yielded a % of control [5] of 92%.
`Cn1cc(-n2cnc3c(NCc4nc5cc(Cl)c(Cl)cc5[nH]4)nc(N4CCOCC4)nc32)cn1` was tested, and the % of inhibition [6] was -15.4%.
For `Cc1cc(F)c(C(=O)Nc2cccc(-c3nncn3C(C)C)n2)cc1-n1cnc(C2CC2)c1`, the % of control [7] was 100%.
Work on `CN(C)C/C=C/C(=O)Nc1ccc(C(=O)N2CCCC(Nc3ncc(Cl)c(-c4c[nH]c5ccccc45)n3)C2)cc1` (stereo not drawn) yielded a % of control [8] of 86%.
